Values belong to the compound of their own block, whether it stands above or below them.
Legend:
[1] = tested on: Sprague-Dawley rats; experiment: CFC with scopolamine challenge; type: in vivo, rat
[2] = hepatocyte metabolite stability (monkey); type: in vitro ADME; conditions: Monkey hepatocytes, 4 h incubation of the parent PAM
From the text: (§1) However, the hepatocyte stability of 7 was far better than 1 for rat, dog, and human and was therefore poised for further advancement of compound characterization.

[3] = hepatocyte metabolite stability (human); type: in vitro ADME; conditions: Human hepatocytes, 4 h incubation of the parent PAM
From the text: From this exercise, a single compound emerged, harboring a tertiary hydroxyl moiety at the 7-position of the indazole, VU6052254 (henceforth PAM 7).
as §1

[4] = multispecies hepatocyte stability, summary across species; type: in vitro ADME, rat, dog, monkey, human
From the text: as §1

[5] = Human Phase I; cited from earlier work
[6] = kinetic / aqueous solubility; type: physicochemical; conditions: result in words
[7] = dog MTD study and high-dose rat 14-day toxicology study; result in words; cited from earlier work

Structure (SMILES): CN1[C@@H]2C[C@@H](OC(=O)[C@H](CO)c3ccccc3)C[C@H]1[C@@H]1O[C@@H]12 [scopolamine]
- disruption of acquisition of CFC ([1]; 0.25 mg/kg IP, rat): ~65%
- effect of scopolamine alone on acquisition of CFC ([1]; 0.26 mg/kg as printed, result in words): robust decrease in the acquisition of CFC

- % Total Peak Area, oxidative metabolite (label = metabolite) [2]: 74.3%
- % Total Peak Area, oxidative metabolite (label = metabolite) [3]: 34.9%
- level of oxidative metabolite generated (label = metabolite) ([4]; across all four species (rat, dog, monkey, human hepatocytes)): > 23%
Structure (SMILES): Cn1cc2c(-c3cc(F)c(CN4C(=O)c5cccnc5C4O)c(F)c3)cccc2n1 (stereo not shown) [compound 2]
- metabolite share of plasma AUC of total VU0467319 drug administered [5]: > 50%

- % Total Peak Area, oxidative metabolite (label = metabolite) [2]: 21%
- level of oxidative metabolite generated (label = metabolite) ([4]; across species except for monkey): < 10%
Structure (SMILES): [2H]C1(O)c2ncccc2C(=O)N1Cc1c(F)cc(-c2cccc3nn(C([2H])([2H])[2H])cc23)cc1F (stereo not shown) [compound 6]

Structure (SMILES): [2H]C1([2H])c2ncccc2C(=O)N1Cc1c(F)cc(-c2cccc3nn(C([2H])([2H])[2H])cc23)cc1F [compound 5]
- aqueous solubility [6]: low aqueous solubility
- amount of oxidative metabolism at high dose [7]: comparable to that of VU0467319 (1)

— PMC12715762, “Discovery of VU6052254: A Novel, Potent M1 Positive Allosteric Modulator” (ACS Chemical Neuroscience, 2025)
